Source: patent publication US12485121B2, “Antiviral agents for the treatment and prevention of HIV infection” (Pharmasyntez, Joint Stock Company, priority 2020, dated 2025)

System: HIV-1 subtype A strain 12RU 69831
Test: Inhibition of HIV-1 reproduction / protection of infected MT-4 cells (living cell concentration, p24 production)
Type: cell-based
Conditions: Human immunodeficiency virus 1, MT4, MT-4 cells infected with HIV-1 at a constant virus dose of 300 CCID50; read-out: Activity against HIV-1 12RU 69831 strain (subtype A)
Protocol: Evaluation of HIV reproduction inhibition/protection of human cells by anti-HIV products of the present invention was conducted by measuring change in living cells concentration in experimental wells with MT-4 cells infected with HIV-1, as well as by the production of viral protein p24 with adding different concentrations of compounds according to the present invention. Antiviral activity of products against HIV-1 subtype A strain 12RU 69831 was determined, when the cell culture was infected with a constant dose of virus, corresponding to 300 CCID50.

Structure (SMILES) | IC50
Cc1cc(C#N)cc(C)c1Oc1nc(Nc2ccc(C#N)cc2)nc2c1CN(Cc1ccncc1)CC2 [BB0274137, 4-((2-((4-Cyanophenyl)amino)-6-(pyridine-4-ylmethyl)-5,6,7,8-tetrahydropyrido[4,3-d]pyrimidine-4-yl)oxy)-3,5-dimethylbenzonitrile] | 7.99 nM
Cc1cc(C#N)cc(C)c1Oc1nc(Nc2ccc(C#N)cc2)nc2c1CN(Cc1cccnc1)CC2 [BB0274138, 4-((2-((4-Cyanophenyl)amino)-6-(pyridine-3-ylmethyl)-5,6,7,8-tetrahydropyrido[4,3-d]pyrimidine-4-yl)oxy)-3,5-dimethylbenzonitrile] | 6.76 nM
Cc1cc(C#N)cc(C)c1Oc1nc(Nc2ccc(C#N)cc2)nc2c1CN(Cc1ccccc1O)CC2 [BB0274140, 4-((2-((4-Cyanophenyl)amino)-6-(2-hydroxybenzyl)-5,6,7,8-tetrahydropyrido[4,3-d]pyrimidine-4-yl)oxy)-3,5-dimethylbenzonitrile] | 27800 nM
C#CCOc1ccccc1CN1CCc2nc(Nc3ccc(C#N)cc3)nc(Oc3c(C)cc(C#N)cc3C)c2C1 [BB0274141, 4-((2-((4-Cyanophenyl)amino)-6-(2-(prop-2-in-1-yloxy)benzyl)-5,6,7,8-tetrahydropyrido[4,3-d]pyrimidine-4-yl)oxy)-3,5-dimethylbenzonitrile] | 174000 nM
COC(=O)C(=O)N1CCc2nc(Nc3ccc(C#N)cc3)nc(Oc3c(C)cc(C=O)cc3C)c2CC1 [BB0274312, Methyl 2-{2-[(4-cyanophenyl)amino]-4-(4-formyl-2,6-dimethylphenoxy)-5H,6H,7H,8H,9H-pyrimido [4,5-d]azepine-7-yl}-2-oxoacetate] | 34800 nM
Cc1cc(C#N)cc(C)c1OC1=NC(Nc2ccc(C#N)cc2)=NC2CCN(C(=O)NC3CCOCC3)CC12 (stereo not shown) [BB0274337, 4-(4-Cyano-2,6-dimethylphenoxy)-2-[(4-cyanophenyl)amino]-N-(oxan-4-yl)-4aH,5H,6H,7H,8H,8aH-pyrido [4,3-d]pyrimidine-6-carboxamide] | 205000 nM
Cc1cc(C#N)cc(C)c1Oc1nc(Nc2ccc(C#N)cc2)nc2c1CN(C(=O)C(N)Cc1cnc[nH]1)CC2 (stereo not shown) [BB0275622, 4-({6-[2-Amino-3-(1H-imidazole-5-yl)propanoyl]-2-[(4-cyanophenyl)amino]-5H,6H,7H,8H-pyrido[4,3-d]pyrimidine-4-yl}oxy)-3,5-dimethylbenzonitrile] | 32 nM

Further lines, results first:

IC50 | Structure (SMILES)
10500 nM | Cc1cc(C#N)cc(C)c1Oc1nc(Nc2ccc(C#N)cc2)nc2c1CCN(C(=O)CCl)CC2 [BB0274133, 4-((7-(2-Chloroacetyl)-2-((4-cyanophenyl)amino)-6,7,8,9-tetrahydro-5H-pyrimido[4,5-d]azepine-4-yl)oxy)-3,5-dimethylbenzonitrile]
95.9 nM | COC(=O)N1CCc2nc(Nc3ccc(C#N)cc3)nc(Oc3c(C)cc(C#N)cc3C)c2CC1 [BB0274134, Methyl 4-(4-cyano-2,6-dimethylphenoxy)-2-((4-4-cyanophenyl)amino)-8,9-dihydro-5H-pyrimido[4,5-d]azepine-7(6H)-carboxylate]
6130 nM | Cc1cc(C#N)cc(C)c1Oc1nc(Nc2ccc(C#N)cc2)nc2c1CCN(S(C)(=O)=O)CC2 [BB0274135, 4-((2-((4-Cyanophenyl)amino)-7-(methylsulfonyl)-6,7,8,9-tetrahydro-5H-pyrimido[4,5-d]azepine-4-yl)oxy)-3,5-dimethylbenzonitrile]
710 nM | Cc1cc(C#N)cc(C)c1Oc1nc(Nc2ccc(C#N)cc2)nc2c1CCN(CCC(=O)O)CC2 [BB0274143, 3-(4-(4-Cyano-2,6-dimethylphenoxy)-2-((4-cyanophenyl)amino)-8,9-dihydro-5H-pyrimido[4,5-d]azepine-7(6H)-yl)propanoic acid]
1630 nM | C=CCN1CCc2nc(Nc3ccc(C#N)cc3)nc(Oc3c(C)cc(C#N)cc3C)c2CC1 [BB0274144, 4-((7-Allyl-2-((4-cyanophenyl)amino)-6,7,8,9-tetrahydro-5H-pyrimido[4,5-d]azepine-4-yl)oxy)-3,5-dimethylbenzonitrile]
1690 nM | CC(=O)N1CCc2nc(Nc3ccc(C#N)cc3)nc(Oc3c(C)cc(C#N)cc3C)c2CC1 [BB0274145, 4-((7-Acetyl-2-((4-cyanophenyl)amino)-6,7,8,9-tetrahydro-5H-pyrimido[4,5-d]azepine-4-yl)oxy)-3,5-dimethylbenzonitrile]
12.5 nM | Cc1cc(C#N)cc(C)c1Oc1nc(Nc2ccc(C#N)cc2)nc2c1CCN(C(=O)Cn1ccnc1)CC2 [BB0274227, 4-((7-(2-(1H-Imidazole-1-yl)acetyl)-2-((4-cyanophenyl)amino)-6,7,8,9-tetrahydro-5H-pyrimido[4,5-d]azepine-4-yl)oxy)-3,5-dimethylbenzonitrile]
48.8 nM | Cc1cc(C#N)cc(C)c1Oc1nc(Nc2ccc(C#N)cc2)nc2c1CCN(C(=O)Cn1ccnc1C)CC2 [BB0274236, 4-((2-((4-Cyanophenyl)amino)-7-(2-(methyl-1H-imidazole-1-yl)acetyl)-6,7,8,9-tetrahydro-5H-pyrimido[4,5-d]azepine-4-yl)oxy)-3,5-dimethylbenzonitrile]
359000 nM | Cc1cc(C#N)cc(C)c1Oc1nc(Nc2ccc(C#N)cc2)nc2c1CN(S(N)(=O)=O)CC2 [BB0274239, 4-(4-Cyano-2,6-dimethylphenoxy)-2-[(4-cyanophenyl)amino]-5H,6H,7H,8H-pyrido[4,3-d]pyrimidine-6-sulfonamide]
